Reference: patent US11976072B2, “Diacylglycerol kinase modulating compounds” (priority 2021, dated 2024)
Like-named read-outs stand apart in the source and are kept apart here.

Tests used:
[1] = system: Jurkat NFκB-luciferase cells; assay: Jurkat NFκB-Luciferase Assay; format: cell-based; conditions: Homo sapiens
Outline: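 Jurkat NFκB-luciferase reporter cells at 1 million cells/ml in RPMI with 10% FBS were added to antibody-coated, compound-containing wells. Luciferase activity read by One-Glo Ex luminescence 7 minutes after reagent addition.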

human DGKα = human DGKα (Homo sapiens, UniProt P23743); assay: DGKα Biochemical Activity Assay (ADP-Glo); conditions: recombinant DGKα 1 nM, 100 μM ATP, 18:1 DAG/POPS/octylglucoside micelles, 1 hour at 25° C.; geometric mean; read-out: HTBS DGKa 1X ATP KM IC50;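 also: luminescent detection of ADP produced as DGKα phosphorylates DAG to phosphatidic acid, IC50 from four-parameter nonlinear curve fit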
[2] = Jurkat NFκB-luciferase cells activated with anti-CD3 antibody (OKT3), 2.5 hrs at 37° C., geometric mean, read-out: DGK NFKb Luciferase EC50
[3] = Jurkat, […], read-out: DGK NFKb Luciferase EC50 (nM)

Sequence of human DGKα (P23743 whole entry): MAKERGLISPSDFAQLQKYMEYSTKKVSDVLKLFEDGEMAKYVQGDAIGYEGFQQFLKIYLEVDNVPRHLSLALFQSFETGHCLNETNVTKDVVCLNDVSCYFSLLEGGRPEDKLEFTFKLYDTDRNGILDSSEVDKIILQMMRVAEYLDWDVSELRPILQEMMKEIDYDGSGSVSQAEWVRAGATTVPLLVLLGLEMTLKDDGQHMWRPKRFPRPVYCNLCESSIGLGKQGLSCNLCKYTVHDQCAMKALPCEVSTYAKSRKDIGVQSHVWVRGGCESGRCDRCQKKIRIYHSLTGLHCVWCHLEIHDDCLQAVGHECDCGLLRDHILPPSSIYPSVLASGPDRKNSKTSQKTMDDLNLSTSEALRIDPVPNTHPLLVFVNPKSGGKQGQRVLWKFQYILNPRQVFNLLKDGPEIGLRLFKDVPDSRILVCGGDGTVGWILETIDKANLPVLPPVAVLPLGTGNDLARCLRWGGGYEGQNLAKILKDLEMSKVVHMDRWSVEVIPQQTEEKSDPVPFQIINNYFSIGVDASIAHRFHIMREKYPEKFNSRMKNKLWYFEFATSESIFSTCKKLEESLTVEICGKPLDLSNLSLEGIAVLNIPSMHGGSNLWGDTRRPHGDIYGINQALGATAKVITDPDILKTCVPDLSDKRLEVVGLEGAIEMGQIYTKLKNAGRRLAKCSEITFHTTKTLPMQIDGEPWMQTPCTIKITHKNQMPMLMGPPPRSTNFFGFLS

EC50 [1, 2] [nM] | IC50 (human DGKα) [nM] | SMILES | EC50 [1, 3] [nM]
1.45 | 12.3 | Cc1nnc2nc(N3CCOCc4c(C#CC(C)(C)C(C)(F)F)cccc43)c3c(F)cccc3n12 [Example 187, 6-(4,4-Difluoro-3,3-dimethyl-pent-1-ynyl)-1-(6-fluoro-1-methyl-[1,2,4]triazolo[4,3-a]quinazolin-5-yl)-3,5-dihydro-2H-4,1-benzoxazepine] | 
2.12 | 9.86 | Cc1nnc2nc(N3CCCCc4c(C#CC(C)(C)C#N)cccc43)c3c(F)cccc3n12 [Example 188, 4-[1-(6-Fluoro-1-methyl-[1,2,4]triazolo[4,3-a]quinazolin-5-yl)-2,3,4,5-tetrahydro-1-benzazepin-6-yl]-2,2-dimethyl-but-3-ynenitrile] | 
3.44 | 1.84 | Cc1nnc2nc(N3CCOCc4c(C#CC(C)(C)C#N)cccc43)c3c(F)cccc3n12 [Example 189, 4-[1-(6-Fluoro-1-methyl-[1,2,4]triazolo[4,3-a]quinazolin-5-yl)-3,5-dihydro-2H-4,1-benzoxazepin-6-yl]-2,2-dimethyl-but-3-ynenitrile] | 
1.46 | 6.91 | Cc1nnc2nc(N3CCOCc4c(C#CC(C)(C)C(F)F)cccc43)c3c(F)cccc3n12 [Example 190, 6-(4,4-Difluoro-3,3-dimethyl-but-1-ynyl)-1-(6-fluoro-1-methyl-[1,2,4]triazolo[4,3-a]quinazolin-5-yl)-3,5-dihydro-2H-4,1-benzoxazepine] | 
1.42 | 3.66 | Cc1nnc2nc(N3CCOCc4c(C#CC5(C(F)F)CC5)cccc43)c3c(F)cccc3n12 [Example 191, 6-[2-[1-(Difluoromethyl)cyclopropyl]ethynyl]-1-(6-fluoro-1-methyl-[1,2,4]triazolo[4,3-a]quinazolin-5-yl)-3,5-dihydro-2H-4,1-benzoxazepine] | 
0.892 | 54.9 | Cc1nnc2nc(N3CCCCc4c(C#CC5(C(F)(F)F)CC5)cccc43)c3c(F)cccc3n12 [Example 192] | 
0.871 | 2.85 | Cc1nnc2nc(N3CCCCc4c(C#CC5(C)COC5)cccc43)c3c(F)cccc3n12 [Example 193] | 
1.68 | 0.773 | Cc1nnc2nc(N3CCOCc4c(C#CC5(C)COC5)cccc43)c3c(F)cccc3n12 [Example 194, 1-(6-Fluoro-1-methyl-[1,2,4]triazolo[4,3-a]quinazolin-5-yl)-6-[2-(3-methyloxetan-3-yl)ethynyl]-3,5-dihydro-2H-4,1-benzoxazepine] | 
0.382 | 13.3 | CCC1(C#Cc2cccc3c2COCCN3c2nc3nnc(C)n3c3cccc(F)c23)CC1 [Example 195, 6-[2-(1-Ethylcyclopropyl)ethynyl]-1-(6-fluoro-1-methyl-[1,2,4]triazolo[4,3-a]quinazolin-5-yl)-3,5-dihydro-2H-4,1-benzoxazepine] | 
0.545 | 2.49 | Cc1nnc2nc(N3CCOCc4c(C#CC5(C)CC5)cccc43)c3c(F)c(F)ccc3n12 [Example 196, 1-(6,7-Difluoro-1-methyl-[1,2,4]triazolo[4,3-a]quinazolin-5-yl)-6-((1-methylcyclopropyl)ethynyl)-1,2,3,5-tetrahydrobenzo[e][1,4]oxazepine] | 
1.38 | 11 | Cc1nnc2nc(N3CCCc4c(C#CC5(O)CCC6(CC5)CC6)cccc43)c3c(F)cccc3n12 [Example 197] | 
0.858 | 5.18 | Cc1nnc2nc(N3CCOCc4c(C#CC5(C(C)(F)F)CC5)cccc43)c3c(F)c(F)ccc3n12 [Example 200, 6-[2-[1-(1,1-Difluoroethyl)cyclopropyl]ethynyl]-1-(6,7-difluoro-1-methyl-[1,2,4]triazolo[4,3-a]quinazolin-5-yl)-3,5-dihydro-2H-4,1-benzoxazepine] | 
0.202 | 6.77 | CC(F)(F)C1(C#Cc2cccc3c2COCCN3c2nc3nncn3c3ccc(F)c(F)c23)CC1 [Example 201, 6-[2-[1-(1,1-Difluoroethyl)cyclopropyl]ethynyl]-1-(6,7-difluoro-[1,2,4]triazolo[4,3-a]quinazolin-5-yl)-3,5-dihydro-2H-4,1-benzoxazepine] | 
0.307 | 2.1 | Fc1ccc2c(c(N3CCOCc4c(C#CC5(C(F)(F)F)CC5)cccc43)nc3nncn32)c1F [Example 203, 1-(6,7-Difluoro-[1,2,4]triazolo[4,3-a]quinazolin-5-yl)-6-[2-[1-(trifluoromethyl)cyclopropyl]ethynyl]-3,5-dihydro-2H-4,1-benzoxazepine] | 
0.121 | 3.83 | CC(C)(C#Cc1cccc2c1COCCN2c1nc2nncn2c2ccc(F)c(F)c12)C(F)(F)F [Example 204, 1-(6,7-Difluoro-[1,2,4]triazolo[4,3-a]quinazolin-5-yl)-6-(4,4,4-trifluoro-3,3-dimethyl-but-1-ynyl)-3,5-dihydro-2H-4,1-benzoxazepine] | 
16.6 | 13.9 | Cc1nnc2nc(N3CCCc4c(C#CC5(O)CCCC5)cccc43)c3c(F)cccc3n12 [Example 205, 1-((1-(6-fluoro-1-methyl-[1,2,4]triazolo[4,3-a]quinazolin-5-yl)-1,2,3,4-tetrahydroquinolin-5-yl)ethynyl)cyclopentan-1-ol] | 
4.04 | 14.9 | Cc1nnc2nc(N3CCOCc4c(C#CC(C)(C)C(F)(F)F)cccc43)c3c(F)c(F)ccc3n12 [Example 207, 1-(6,7-Difluoro-1-methyl-[1,2,4]triazolo[4,3-a]quinazolin-5-yl)-6-(4,4,4-trifluoro-3,3-dimethyl-but-1-ynyl)-3,5-dihydro-2H-4,1-benzoxazepine] | 
0.815 | 18.7 | CC(F)(F)C1(C#Cc2cccc3c2CCCCN3c2nc3nncn3c3ccc(F)c(F)c23)CC1 [Example 208, 5-(6-((1-(1,1-Difluoroethyl)cyclopropyl)ethynyl)-2,3,4,5-tetrahydro-1H-benzo[b]azepin-1-yl)-6,7-difluoro-[1,2,4]triazolo[4,3-a]quinazoline] | 
0.657 | 5.88 | Cc1nnc2nc(N3CCOCc4c(C#CC(C)(C)C(F)(F)F)cccc43)c3cc(F)ccc3n12 [Example 210] | 
56.1 | 6.35 | Cc1nnc2nc(N3CCOCc4c(C#Cc5cn[nH]c5)cccc43)c3c(F)cccc3n12 [Example 211, 6-((1H-pyrazol-4-yl)ethynyl)-1-(6-fluoro-1-methyl-[1,2,4]triazolo[4,3-a]quinazolin-5-yl)-1,2,3,5-tetrahydrobenzo[e][1,4]oxazepine] | 
9.7 | 18.6 | Cc1nnc2nc(N3CCCc4c(C#Cc5cn[nH]c5)cccc43)c3c(F)cccc3n12 [Example 212, 5-(5-((1H-pyrazol-4-yl)ethynyl)-3,4-dihydroquinolin-1(2H)-yl)-6-fluoro-1-methyl-[1,2,4]triazolo[4,3-a]quinazoline] | 
1.28 | 10 | Cc1nnc2nc(N3CCCc4c(C#Cc5ccc(C#N)nc5)cccc43)c3c(F)cccc3n12 [Example 213, 5-((1-(6-fluoro-1-methyl-[1,2,4]triazolo[4,3-a]quinazolin-5-yl)-1,2,3,4-tetrahydroquinolin-5-yl)ethynyl)picolinonitrile] | 
3.29 | 9.08 | Cc1nnc2nc(N3CCOCc4c(C#Cc5ccnn5C)cccc43)c3c(F)cccc3n12 [Example 214, 1-(6-fluoro-1-methyl-[1,2,4]triazolo[4,3-a]quinazolin-5-yl)-6-((1-methyl-1H-pyrazol-5-yl)ethynyl)-1,2,3,5-tetrahydrobenzo[e][1,4]oxazepine] | 
9.95 | 25.2 | Cc1nnc2nc(N3CCCc4c(C#Cc5ccn[nH]5)cccc43)c3c(F)cccc3n12 [Example 215, 5-(5-((1H-pyrazol-5-yl)ethynyl)-3,4-dihydroquinolin-1(2H)-yl)-6-fluoro-1-methyl-[1,2,4]triazolo[4,3-a]quinazoline] | 
5.42 | 24.3 | Cc1cccc2c1c(N1CCOCc3c(C#CC4(C)CC4)cccc31)nc1nnc(C)n12 [Example 216, 1-(1,6-dimethyl-[1,2,4]triazolo[4,3-a]quinazolin-5-yl)-6-((1-methylcyclopropyl)ethynyl)-1,2,3,5-tetrahydrobenzo[e][1,4]oxazepine] | 

SMILES | EC50 [1, 2] [nM] | IC50 (human DGKα) [nM] | EC50 [1, 3] [nM]
Cc1nnc2nc(N3CCCc4c(C#CC5(O)CC6CC(C6)C5)cccc43)c3c(F)cccc3n12 (stereo not drawn) [Example 198, 3-((1-(6-fluoro-1-methyl-[1,2,4]triazolo[4,3-a]quinazolin-5-yl)-1,2,3,4-tetrahydroquinolin-5-yl)ethynyl)bicyclo[3.1.1]heptan-3-ol] |  | 10.8 | 0.508
Cc1nnc2nc(N3CCCc4c(C#CC5(O)C[C@H]6C[C@H]6C5)cccc43)c3c(F)cccc3n12 (stereo partly drawn) [Example 199, (1R,5S)-3-((1-(6-fluoro-1-methyl-[1,2,4]triazolo[4,3-a]quinazolin-5-yl)-1,2,3,4-tetrahydroquinolin-5-yl)ethynyl)bicyclo[3.1.0]hexan-3-ol] |  | 3.83 | 1.62
OC1(C#Cc2cccc3c2CCCN3c2nc3nncn3c3cccc(F)c23)CCCCC1 [Example 202, 1-((1-(6-Fluoro-[1,2,4]triazolo[4,3-a]quinazolin-5-yl)-1,2,3,4-tetrahydroquinolin-5-yl)ethynyl)cyclohexan-1-ol] |  | 3.88 | 2.04
Cc1nnc2nc(N3CCCc4c(C#CC5(O)CCCCC5)cccc43)c3c(F)cccc3n12 [Example 206, 1-((1-(6-fluoro-1-methyl-[1,2,4]triazolo[4,3-a]quinazolin-5-yl)-1,2,3,4-tetrahydroquinolin-5-yl)ethynyl)cyclohexan-1-ol] |  | 13.5 | 5.07
OC1(C#Cc2cccc3c2CCCN3c2nc3nncn3c3ccc(F)c(F)c23)CCCCC1 [Example 209, 1-[2-[1-(6,7-Difluoro-[1,2,4]triazolo[4,3-a]quinazolin-5-yl)-3,4-dihydro-2H-quinolin-5-yl]ethynyl]cyclohexanol] |  | 2.19 | 1.17
